In paper PMC3909264, “A Novel Acylaminoimidazole Derivative, WN1316, Alleviates Disease Progression via Suppression of Glial Inflammation in ALS Mouse Model” (PLoS ONE, 2014):
Structures can show the parent of a compound that is named as a salt.

Columns and labels:
NAIP in THP-1 cells = assay: Western blot of NAIP in THP-1 cells; format: cell-based, human; details: 1 to 16 µM, 24 h
Description: Human monocytic leukemia cell line THP-1 (ATCC, TIB-202) was cultured in RPMI-1640 (Wako) supplemented with 10% fetal bovine serum, 100 U/ml penicillin, and 100 µg/ml streptomycin at 37°C in 5% CO2. Approximately 1×10^5 cells, which were pretreated with 1 to 16 µM WN1316 or DMSO in the presence or absence of 1 mM NAC for 24 h, were plated on a 96-well plate and exposed to 80 µM menadione for 16 h. Cell viability was measured by AlamarBlue assay. For Western blotting, cell lysates were prepared by using M-PER mammalian protein extraction reagent (Thermo scientific) according to standard procedure.

[1] = Complexing with protein in rat serum; format: in vitro ADME; details: rat sera, unpublished data
ALS(SOD1^H46R) mice = assay: Post-onset oral administration in ALS(SOD1^H46R) mice: motor function, body weight, survival; format: in vivo; details: for balance beam test: duration from onset to the day the mouse was unable to stay on the bar: n = 26, mean ± SEM (vehicle 20.7±0.7); for survival interval after onset: n = 26, mean ± SD (vehicle 36.6±6.2)
From the text: Transgenic mice carrying the H46R mutation in the human SOD1 gene; SOD1^H46R were used as a familial ALS mouse model. […] Since the genetic background is one of the important factors modulating disease phenotypes in mutant SOD1 transgenic mice, we first generated a congenic line of ALS(SOD1^H46R) transgenic mice by backcrossing more than 15 generations to B6 mice.
(§1) The lines were maintained as hemizygotes by mating ALS(SOD1^H46R) and ALS(SOD1^G93A) males with B6 females. Offspring were genotyped by PCR using genomic DNA from tail tissue. Mice were housed at 23°C with a 12 h light/dark cycle, in which water and food was available ad libitum. The condition of each animal was monitored weekly initially and then daily after disease onset. The lifespan was determined by the days from disease onset to the endpoint, in which mouse lost active and/or spontaneous movement. All animal experimental procedures were approved by the Institutional Animal Care and Use Committee at Tokai University.
(§2) WN1316 was dissolved in MQ water, and diluted with physiological saline. ALS(SOD1^H46R) transgenic mice were given WN1316 via gastric tube (CAT.No.4202, Fuchigami) at a dose of either 1 µg, 10 µg or 100 µg/5 ml/kg body weight. ALS(SOD1^G93A) transgenic mice were given 10 µg/kg WN1316. Animals simultaneously treated with physiological saline (vehicle group, 5 ml/kg) were used as controls.
(§3) To determine the onset of motor dysfunction in ALS(SOD1^H46R) transgenic mice, we adopted a balance beam test as previously described in detail. To determine the onset of motor dysfunction in ALS(SOD1^G93A) transgenic mice, we adopted both balance beam and grip strength tests. Grip strength test was assessed using a traction meter (BrainScience Idea Co., Ltd.). Each mouse was given three trials, and the highest limb strength score was recorded. For ALS(SOD1^G93A) transgenic mice, grip strength tests were started at 11 weeks of age and performed twice a week until an over 20% reduction compared with the initial limb strength score at 11 weeks of age was observed. Finally, a grade 3 in the balance beam test and over 20% reduction of limb strength score were defined as the sign of the disease onset in ALS(SOD1^G93A) transgenic mice.
(§4) The gross phenotypes were measured blindly. The body weight of each mouse was measured weekly initially and then daily after disease onset. Mice were assessed for gross behavior every week from 12 weeks of age in ALS(SOD1^H46R) mice and from 11 weeks of age in ALS(SOD1^G93A) mice until the endpoint. In particular, hind limb movement and rearing behavior of each animal were monitored weekly from 12 weeks of age until the end stage. The days from the disease onset to the endpoint were counted individually as the survival interval.
We assessed motor performance and coordination, and balance in the mice by the balance-beam test, vertical pole test, and footprint analysis as previously described in detail and grip strength test as described above. In brief, the balance-beam test was performed every day after the onset until mice were unable to stay on the bar. Each mouse was given a maximum of five vertical pole trials using the following two criteria; 1) a cutoff of 45cm and 2) the task was terminated when mouse reached the vertical ascending distance of 45 cm. The highest vertical ascending distance was scored. The footprint trial was conducted at 18 and 21 weeks of age in ALS(SOD1^H46R) mice and at 12, 16, and 20 weeks of age in ALS(SOD1^G93A) mice. Grip strength test of ALS(SOD1^H46R) mice was started at 17 weeks of age and performed once a week.
To evaluate the spontaneous motor activities in mice, we conducted cage activity and rearing performance tests by using SUPERMEX with infrared ray sensor monitor (Muromachi Kikai). […]

ALS(SOD1^G93A) mice = assay: Post-onset oral administration in ALS(SOD1^G93A) mice: motor function, body weight, survival; format: in vivo
Description: In addition, congenic ALS(SOD1^G93A) transgenic mice on a B6 background were also generated by crossing B6SJL-TgN(SOD1-G93A)1Gur [ALS(SOD1^G93A)] males (Jackson Laboratory) to B6 females for more than 11 generations. Both congenic ALS mice were used throughout this study.
as §1, §2, §3, §4
We assessed motor performance and coordination, and balance in the mice by the balance-beam test, vertical pole test, and footprint analysis as previously described in detail and grip strength test as described above. In brief, the balance-beam test was performed every day after the onset until mice were unable to stay on the bar. […] The highest vertical ascending distance was scored. […]
To evaluate the spontaneous motor activities in mice, we conducted cage activity and rearing performance tests by using SUPERMEX with infrared ray sensor monitor (Muromachi Kikai). Both cage activity and rearing performance were monitored for 2 consecutive nights starting at 18 weeks and 21 weeks of age in ALS(SOD1^H46R) mice and at 13 weeks, 17 weeks and 21 weeks of age in ALS(SOD1^G93A) mice. […]

Cc1cc(C)c(N(C)CC(=O)Nc2nc(-c3ccccn3)c[nH]2)c(C)c1 [WN1316, 2-[mesityl(methyl)amino]-N-[4-(pyridin-2-yl)-1H-imidazol-2-yl] acetamide trihydrochloride]
NAIP protein level (NAIP in THP-1 cells): dose-dependent upregulation | protein complexing in serum [1]: complexes with protein | balance beam test: duration from onset to the day the mouse was unable to stay on the bar (ALS(SOD1^H46R) mice; 1 µg/kg/day p.o. post-onset): 25.6 ± 0.9 days | survival interval after onset (ALS(SOD1^H46R) mice; 1 µg/kg/day p.o.): 43.8 ± 5.5 days | balance beam test: duration from onset to the day the mouse was unable to stay on the bar (ALS(SOD1^H46R) mice; 10 µg/kg/day p.o. post-onset): 26.3 ± 0.6 days | survival interval after onset (ALS(SOD1^H46R) mice; 10 µg/kg/day p.o.): 43.9 ± 4.4 days | balance beam test: duration from onset to the day the mouse was unable to stay on the bar (ALS(SOD1^H46R) mice; 100 µg/kg/day p.o. post-onset): 28.4 ± 0.8 days | survival interval after onset (ALS(SOD1^H46R) mice; 100 µg/kg/day p.o.): 45.9 ± 6.0 days | effect on mouse weight (ALS(SOD1^H46R) mice; 1, 10, 100 µg/kg/day, 12–24 weeks of age): did not affect mouse weight | prolongation of post-onset survival (ALS(SOD1^H46R) mice; 1–100 µg/kg/day p.o., vs vehicle): 20–25% | vertical pole climbing and grip strength (ALS(SOD1^H46R) mice; 1–100 µg/kg/day, 21–22 weeks of age (late symptomatic stage), vs vehicle): significant preservation of motor performance | gait on footprint analysis (ALS(SOD1^H46R) mice; 21 weeks of age (late symptomatic stage)): short but still steady gait | autopsy findings of organs such as heart and kidney (ALS(SOD1^H46R) mice; WN1316-treated mice, data not shown): no pathological abnormalities | impact including weight gain or loss (ALS(SOD1^G93A) mice; 10 µg/kg/day p.o.): No impact | post-onset life span (survival interval) (ALS(SOD1^G93A) mice; 10 µg/kg/day p.o., n = 8, mean ± SD (vehicle 57.9±6.0)): 66.1 ± 12.0 days | balance beam test: duration from onset to the day the mouse was unable to stay on the bar (ALS(SOD1^G93A) mice; 10 µg/kg/day p.o., n = 8, mean ± SEM (vehicle 39.3±2.1)): 47.1 ± 3.0 days | prolongation of post-onset survival (ALS(SOD1^G93A) mice; 10 µg/kg/day p.o., vs vehicle): 14% | motor performance by footprint analysis (ALS(SOD1^G93A) mice; 10 µg/kg/day, 20 weeks of age (late symptomatic stage), vs vehicle): sustained motor performance
